Patent US5091419A, “Diurea derivatives useful as medicaments and processes for the preparation thereof” (Yamanouchi Pharmaceutical Co., Ltd., priority 1988, dated 1992)

Target: acyl CoA: cholesterol acyltransferase (ACAT)
Assay: Inhibiting activity against ACAT activity of rabbit's liver microsome
Assay type: biochemical
Conditions: rabbit's liver microsome enzyme fraction, 1-14C-oleoyl CoA, 37° C.; read-out: Inhibiting activity against ACAT activity: IC (M) 50%
Experimental: Inhibiting activity against acyl CoA: cholesterol acyltransferase (ACAT) activity of rabbit's liver microsome According to Heider's method [J. G. Heider et al., J. of Lipid Res. Vol. 24, 1127-34 (1983)], rabbit's liver microsome was treated to obtain enzyme fraction. To 0.154M of phosphoric acid buffer solution (pH 7.4), 2 mM of dithiothreitol, 36 μM of bovine serum albumin and 10 to 100 μg of microsome fraction, liposome prepared by Suckling's method [K. E. […] Then, 36 μM oleoyl CoA containing 1-^14 C-oleoyl CoA was added and the whole mixture was heated for 10 minutes at the temperature of 37° C. The reaction was ceased by adding chloroform/methanol (=2/1). Upon stirring, cholesterol oleate extracted into chloroform layer was separated by thin layer chromatography and the radioactivity was then determined as ACAT activity.

- IC50: 1.8e-08 M
SMILES: O=C(Nc1ccc(F)cc1F)N(Cc1cccc(CN(C(=O)Nc2ccc(F)cc2F)C2CCCCCC2)c1)C1CCCCCC1 [Example 1, 1,3-bis[[1-cycloheptyl-3-(2,4-difluorophenyl)ureido]methyl]benzene]
